Laboratory results published in patent US7432398B2, “Inorganic acid salts of sibutramine” (CJ Corporation, priority 2005, dated 2008).
Where a name gives a salt, the structure may show the parent alone.

How the values were obtained:
[1] = Evaluation of hygroscopicity: water content (K.F.) after exposure to humid conditions; format: physicochemical; details: for change in water content under humid conditions: 75% and 90% RH, up to 1 week
Experimental: Then, the water content (K.F. water %) of the samples was measured.

[2] = Stability on stringent 60° C. heat treatment (HPLC content); details: for chemical stability at high temperature: 60° C. heat treatment
Experimental: The inorganic acid salts of sibutramine, prepared in Examples 1, 2 and 3, and sibutramine hydrochloride monohydrate were exposed to a stringent 60° C. heat treatment.
HPLC was performed under the following conditions. Wavelength of UV detection: 225 nm
Column: octadecyl silica gel, C18 (4.6×150 mm, 5 μm)

[3] = Light stability test, fluorescent light at 25° C., ICH chamber (HPLC content); format: physicochemical
Experimental: A light stability test was performed as follows.

[4] = Evaluation of solubility in solutions having various pH values
Source text: In Table 8, the solubility is expressed as milligrams (mg) of sibutramine dissolved per milliliter (ml) of solution.

[5] = 75% relative humidity, 25 °C, 1 week
[6] = 75% relative humidity, 25 °C, 3 days
[7] = 90% relative humidity, 25 °C, 1 week
[8] = 90% relative humidity, 25 °C, 3 days
[9] = fluorescent light, 25° C., 1 wk
[10] = fluorescent light, 25° C., 2 wks
[11] = fluorescent light, 25° C., 4 wks

| Compound | change in water content under humid conditions [1] | water content (K.F. water %) [1, 5] [%] | water content (K.F. water %) [1, 6] [%] | water content (K.F. water %) [1, 7] [%] | water content (K.F. water %) [1, 8] [%] | water content (K.F. water %) ([1]; Initial) [%] | chemical stability at high temperature [2] | content (HPLC) on 60° C. heat treatment ([2]; 60° C., 1 wk) | content (HPLC) on 60° C. heat treatment ([2]; 60° C., 2 wks) | content (HPLC) on 60° C. heat treatment ([2]; 60° C., 4 wks) | content (HPLC) on 60° C. heat treatment ([2]; Initial) | content (HPLC) on exposure to fluorescent light ([3]; Initial) | content (HPLC) on exposure to fluorescent light [3, 9] | content (HPLC) on exposure to fluorescent light [3, 10] | content (HPLC) on exposure to fluorescent light [3, 11] | other results |
| --- | --- | --- | --- | --- | --- | --- | --- | --- | --- | --- | --- | --- | --- | --- | --- | --- |
| CC(C)CC(N(C)C)C1(c2ccc(Cl)cc2)CCC1 (stereo not shown) [Sibutramine HCl hydrate, sibutramine hydrochloride monohydrate, reference compound] | almost no change in water content | 5.5 | 5.49 | 5.49 | 5.5 | 5.5 | good chemical stability | 1.000 | 0.999 | 0.999 | 1.000 | 1.000 | 1.000 | 0.999 | 0.999 | light stability ([3]; fluorescent light, 25° C., content by HPLC): good light stability |
| sibutramine bromate | almost no change in water content | 0.09 | 0.09 | 0.08 | 0.08 | 0.09 | good chemical stability | 0.999 | 1.000 | 0.999 | 1.000 | 1.000 | 1.000 | 0.999 | 0.999 | solubility (mg of sibutramine dissolved per ml of solution) ([4]; DW (distilled water), dissolved at 37° C.): 12.78 mg/mL; solubility (mg of sibutramine dissolved per ml of solution) ([4]; pH 1.2, dissolved at 37° C.): 12.43 mg/mL; solubility (mg of sibutramine dissolved per ml of solution) ([4]; pH 4.0, dissolved at 37° C.): 3.64 mg/mL; solubility (mg of sibutramine dissolved per ml of solution) ([4]; pH 5.3, dissolved at 37° C.): 8.96 mg/mL; solubility (mg of sibutramine dissolved per ml of solution) ([4]; pH 6.8, dissolved at 37° C.): 11.08 mg/mL; solubility (mg of sibutramine dissolved per ml of solution) ([4]; pH 7.4, dissolved at 37° C.): 12.41 mg/mL |
| sibutramine hydrogen sulfate | almost no change in water content | 0.01 | 0.02 | 0.03 | 0.03 | 0.02 | good chemical stability | 1.000 | 0.999 | 0.999 | 1.000 | 1.000 | 1.000 | 1.000 | 0.999 | – |
| sibutramine phosphate monohydrate [Sibutramine phosphate hydrate] | almost no change in water content | 4.25 | 4.24 | 4.26 | 4.25 | 4.25 | good chemical stability | 1.000 | 0.999 | 1.000 | 1.000 | 1.000 | 1.000 | 0.999 | 0.999 | – |
